Results reported in patent US9321773B2, “Compounds” (Respivert Ltd, priority 2009, dated 2016).
“Also recorded” adds a separate entry of the source. Like-named read-outs stand apart in the source and are kept apart here.

How the values were obtained:
recombinant PI3 kinase α = recombinant PI3 kinase α (Homo sapiens (Human), UniProt P42336); assay: Enzyme Inhibition Assay (HTRF PI3K enzyme assay, TR-FRET); type: biochemical
Summary of the method: (§1)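 Recombinant PI3Kα, δ or γ incubated with PIP2 substrate and compound for 2 hr at RT. Stop solution with biotin-PIP3 and GST-GRP1 PH domain/Eu-anti-GST/SA-APC detection mix added, then 15-18 hr at RT. PIP3 formed reduces the TR-FRET signal.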

recombinant PI3 kinase γ = recombinant PI3 kinase γ (Homo sapiens (Human), UniProt P48736); assay: as above; type: biochemical
Sequence of recombinant PI3 kinase γ (P48736 whole entry): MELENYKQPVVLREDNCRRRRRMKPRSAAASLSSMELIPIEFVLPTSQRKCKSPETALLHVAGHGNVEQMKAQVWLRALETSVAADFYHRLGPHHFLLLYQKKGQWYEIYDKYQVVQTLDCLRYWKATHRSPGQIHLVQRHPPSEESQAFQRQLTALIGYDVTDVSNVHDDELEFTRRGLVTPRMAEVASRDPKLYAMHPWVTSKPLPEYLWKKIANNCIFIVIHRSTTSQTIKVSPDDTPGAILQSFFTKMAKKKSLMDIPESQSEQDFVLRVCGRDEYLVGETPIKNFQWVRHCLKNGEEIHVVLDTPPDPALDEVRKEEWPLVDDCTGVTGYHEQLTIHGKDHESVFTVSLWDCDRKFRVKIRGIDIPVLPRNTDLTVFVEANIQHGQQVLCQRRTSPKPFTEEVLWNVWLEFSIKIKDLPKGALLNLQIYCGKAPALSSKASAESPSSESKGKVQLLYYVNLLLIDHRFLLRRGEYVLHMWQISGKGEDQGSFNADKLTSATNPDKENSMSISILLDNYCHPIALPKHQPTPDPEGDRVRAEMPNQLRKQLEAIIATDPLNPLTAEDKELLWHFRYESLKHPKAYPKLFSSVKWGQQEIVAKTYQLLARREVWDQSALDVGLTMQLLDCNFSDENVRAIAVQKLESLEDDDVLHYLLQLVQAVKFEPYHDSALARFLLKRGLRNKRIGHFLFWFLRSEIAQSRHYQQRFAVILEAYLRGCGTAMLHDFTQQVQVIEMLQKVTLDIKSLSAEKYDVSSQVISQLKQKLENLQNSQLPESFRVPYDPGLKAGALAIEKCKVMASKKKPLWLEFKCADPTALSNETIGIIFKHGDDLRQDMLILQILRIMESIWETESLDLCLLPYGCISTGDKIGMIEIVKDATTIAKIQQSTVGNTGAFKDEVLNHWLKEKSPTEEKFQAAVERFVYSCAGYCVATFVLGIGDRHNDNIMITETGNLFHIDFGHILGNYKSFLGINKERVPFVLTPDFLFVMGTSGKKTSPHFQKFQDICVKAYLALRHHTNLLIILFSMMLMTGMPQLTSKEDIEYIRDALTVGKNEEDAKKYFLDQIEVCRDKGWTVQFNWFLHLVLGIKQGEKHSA
Summary of the method: as §1

recombinant PI3 kinase δ = recombinant PI3 kinase δ (Homo sapiens (Human), UniProt O00329); assay: as above; type: biochemical
Sequence of recombinant PI3 kinase δ (O00329 whole entry): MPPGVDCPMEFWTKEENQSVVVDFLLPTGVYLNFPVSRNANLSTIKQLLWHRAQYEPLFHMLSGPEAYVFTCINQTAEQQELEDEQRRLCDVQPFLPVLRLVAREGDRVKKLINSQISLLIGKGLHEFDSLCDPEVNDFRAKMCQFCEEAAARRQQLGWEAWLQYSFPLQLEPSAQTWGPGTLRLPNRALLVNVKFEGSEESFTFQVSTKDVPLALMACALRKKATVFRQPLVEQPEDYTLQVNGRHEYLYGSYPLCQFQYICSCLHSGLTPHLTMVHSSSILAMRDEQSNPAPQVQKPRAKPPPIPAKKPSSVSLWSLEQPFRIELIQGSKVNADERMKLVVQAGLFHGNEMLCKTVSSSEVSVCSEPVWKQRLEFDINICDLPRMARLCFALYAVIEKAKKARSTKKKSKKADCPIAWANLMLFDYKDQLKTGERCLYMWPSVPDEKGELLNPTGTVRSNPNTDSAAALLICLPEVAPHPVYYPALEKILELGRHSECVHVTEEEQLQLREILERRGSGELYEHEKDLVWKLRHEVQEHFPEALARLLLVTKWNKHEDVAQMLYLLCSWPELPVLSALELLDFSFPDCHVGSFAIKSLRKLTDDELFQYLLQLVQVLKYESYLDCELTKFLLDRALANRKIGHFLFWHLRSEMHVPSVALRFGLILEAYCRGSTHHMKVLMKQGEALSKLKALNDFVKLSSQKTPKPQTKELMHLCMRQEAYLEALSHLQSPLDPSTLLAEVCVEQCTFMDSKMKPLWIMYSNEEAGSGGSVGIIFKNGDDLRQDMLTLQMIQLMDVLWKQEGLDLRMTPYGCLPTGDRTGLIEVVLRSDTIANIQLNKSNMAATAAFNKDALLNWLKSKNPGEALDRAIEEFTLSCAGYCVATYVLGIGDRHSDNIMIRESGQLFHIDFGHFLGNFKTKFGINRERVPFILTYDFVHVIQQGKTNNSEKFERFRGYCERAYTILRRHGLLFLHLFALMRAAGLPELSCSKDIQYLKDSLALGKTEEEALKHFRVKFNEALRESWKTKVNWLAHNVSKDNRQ
Sequence of recombinant PI3 kinase δ (P27986 whole entry partner): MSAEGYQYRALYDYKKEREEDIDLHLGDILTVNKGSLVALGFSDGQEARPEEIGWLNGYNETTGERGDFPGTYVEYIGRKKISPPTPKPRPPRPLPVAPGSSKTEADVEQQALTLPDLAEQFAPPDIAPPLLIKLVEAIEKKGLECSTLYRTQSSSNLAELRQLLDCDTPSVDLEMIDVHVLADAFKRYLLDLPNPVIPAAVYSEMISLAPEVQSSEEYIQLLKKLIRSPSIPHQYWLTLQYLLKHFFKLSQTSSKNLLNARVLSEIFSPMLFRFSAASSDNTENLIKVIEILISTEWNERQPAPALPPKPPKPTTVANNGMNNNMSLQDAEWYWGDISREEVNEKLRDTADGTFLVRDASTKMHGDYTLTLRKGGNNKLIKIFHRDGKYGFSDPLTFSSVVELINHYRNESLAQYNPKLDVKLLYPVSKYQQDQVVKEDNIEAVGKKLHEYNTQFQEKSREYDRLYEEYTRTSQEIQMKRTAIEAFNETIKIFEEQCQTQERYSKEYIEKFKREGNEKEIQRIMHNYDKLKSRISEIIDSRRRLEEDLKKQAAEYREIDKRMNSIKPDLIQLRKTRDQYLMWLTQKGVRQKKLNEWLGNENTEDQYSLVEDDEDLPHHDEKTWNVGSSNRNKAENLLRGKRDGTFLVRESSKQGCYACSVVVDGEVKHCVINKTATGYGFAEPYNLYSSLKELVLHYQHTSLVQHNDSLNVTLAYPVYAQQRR
Summary of the method: as §1

[1] = system: H2O2 induced pAkt in D-U937 cells; assay: PI3Kδ Cell Based Assay (H2O2 induced pAkt); conditions: Homo sapiens, dU937
Summary of the method: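 U937 cells differentiated to macrophage-type cells with PMA (100 ng/mL, 48 to 72 hr), then stimulated with H2O2. pAkt and total Akt detected by antibody-based immunoassay. Ratio of pAkt to total Akt signal used; IC50 from concentration-response curves of serially diluted compounds.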

[2] = system: PMA-differentiated U937 cells; assay: MTT Assay (cell viability); type: cell-based, Human; conditions: percentage loss of cell viability; for Cell Viability MTT Assay in D-U937 cells at 4 hr: 4 hr in 5% FCS; for Cell Viability MTT Assay in D-U937 cells at 24 hr: 24 hr in 10% FCS
Summary of the method: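 Differentiated U937 cells treated with compound for 4 hr (5% FCS) or 24 hr (10% FCS), then given MTT for 1 hr; formazan dissolved in DMSO and absorbance read at 550 nm. Viability loss expressed as % versus 0.5% DMSO vehicle.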

[3] = system: LPS induced neutrophilia in mouse lung; assay: LPS-Induced Neutrophilia in the Mouse; type: in vivo; conditions: for inhibition of LPS-induced neutrophilia (neutrophil influx into the lung), in words: intra-tracheal dosing before LPS challenge
Procedure: Non-fasted mice were dosed by the intra-tracheal route with either vehicle, or the test substance at the time points (“pre-dose”) indicated with respect to the start of LPS treatment. At T=0, mice were placed into an exposure chamber and exposed to LPS. Eight hr after LPS challenge, animals were anesthetized, the trachea cannulated and BALF extracted by infusing and withdrawing 1 mL of PBS into the lungs via a tracheal catheter. Total and differential white cell counts in the BALF samples were measured using a Neubaur haemocytometer. Cytospin smears of the BALF samples were prepared by centrifugation at 200 rpm for 5 min at RT and stained using a DiffQuik stain system (Dade Behring). Cells were counted using oil immersion microscopy.

[4] = system: cigarette smoke-induced pulmonary macrophage and neutrophil influx; assay: Cigarette Smoke Model; type: in vivo, mouse; conditions: A/J mice; for anti-inflammatory activity (BALF neutrophils and alveolar macrophages), monotherapy: twice daily for 3 days after final smoke exposure
Procedure: A/J mice (males, 5 weeks old) were exposed to cigarette smoke (4% cigarette smoke, diluted with compressed air) for 30 min/day for 11 days using a Tobacco Smoke Inhalation Experiment System for small animals (Model SIS-CS; Sibata Scientific Technology, Tokyo, Japan). Test substances were given intra-nasally (35 μL of solution in 50% DMSO/PBS) and therapeutically twice daily for 3 days after the final cigarette smoke exposure. Twelve hr after the last dosing, animals were anesthetized, the trachea cannulated and bronchoalveolar lavage fluid (BALF) was collected. The numbers of alveolar macrophages and neutrophils were determined by FACS analysis (EPICS® ALTRA II, Beckman Coulter, Inc., Fullerton, Calif., USA) using anti-mouse MOMA2 antibody (macrophage) or anti-mouse 7/4 antibody (neutrophil).

[5] = Stereochemical analysis by chiral stationary phase HPLC (atropisomerism); type: physicochemical; conditions: chiral stationary phase HPLC (16 different conditions for the examples)
Procedure: Each of these mobile phase are compatible with the column packings referred to above, providing sixteen different solvent and stationary phase permutations. Modifiers such as triethylamine (0.1%), formic acid (0.1%) may be added to improve the resolution
Semi-preparative Chiral Stationary Phase LC-UV was performed on a Gilson preparative modular system using a Daicel Chiralpak AD semi-prep column ([…], 20×250 mm) and a flow rate of 18 mL/min eluting with an isocratic method over 20 min using […] heptane:IPA and 0.1% triethylamine employing an injection volume of 1.0 mL.

[6] = activity range, read-out: PI3 Kinase Inhibition IC50 values at stated Isozyme α
[7] = read-out: PI3 Kinase Inhibition IC50 values at stated Isozyme (nM) α
[8] = activity range, read-out: PI3 Kinase Inhibition IC50 values at stated Isozyme γ
[9] = read-out: PI3 Kinase Inhibition IC50 values at stated Isozyme (nM) γ
[10] = activity range, read-out: PI3 Kinase Inhibition IC50 values at stated Isozyme δ
[11] = read-out: PI3 Kinase Inhibition IC50 values at stated Isozyme (nM) δ
[12] = activity range, D-U937 cells, read-out: Cellular Activity IC50 values (H2O2 induced pAkt D-U937 Cells)
[13] = read-out: Cellular Activity IC50 values (H2O2 induced pAkt (nM) D-U937 Cells)

Sequence of recombinant PI3 kinase α (P42336 whole entry, the tested form may be a part): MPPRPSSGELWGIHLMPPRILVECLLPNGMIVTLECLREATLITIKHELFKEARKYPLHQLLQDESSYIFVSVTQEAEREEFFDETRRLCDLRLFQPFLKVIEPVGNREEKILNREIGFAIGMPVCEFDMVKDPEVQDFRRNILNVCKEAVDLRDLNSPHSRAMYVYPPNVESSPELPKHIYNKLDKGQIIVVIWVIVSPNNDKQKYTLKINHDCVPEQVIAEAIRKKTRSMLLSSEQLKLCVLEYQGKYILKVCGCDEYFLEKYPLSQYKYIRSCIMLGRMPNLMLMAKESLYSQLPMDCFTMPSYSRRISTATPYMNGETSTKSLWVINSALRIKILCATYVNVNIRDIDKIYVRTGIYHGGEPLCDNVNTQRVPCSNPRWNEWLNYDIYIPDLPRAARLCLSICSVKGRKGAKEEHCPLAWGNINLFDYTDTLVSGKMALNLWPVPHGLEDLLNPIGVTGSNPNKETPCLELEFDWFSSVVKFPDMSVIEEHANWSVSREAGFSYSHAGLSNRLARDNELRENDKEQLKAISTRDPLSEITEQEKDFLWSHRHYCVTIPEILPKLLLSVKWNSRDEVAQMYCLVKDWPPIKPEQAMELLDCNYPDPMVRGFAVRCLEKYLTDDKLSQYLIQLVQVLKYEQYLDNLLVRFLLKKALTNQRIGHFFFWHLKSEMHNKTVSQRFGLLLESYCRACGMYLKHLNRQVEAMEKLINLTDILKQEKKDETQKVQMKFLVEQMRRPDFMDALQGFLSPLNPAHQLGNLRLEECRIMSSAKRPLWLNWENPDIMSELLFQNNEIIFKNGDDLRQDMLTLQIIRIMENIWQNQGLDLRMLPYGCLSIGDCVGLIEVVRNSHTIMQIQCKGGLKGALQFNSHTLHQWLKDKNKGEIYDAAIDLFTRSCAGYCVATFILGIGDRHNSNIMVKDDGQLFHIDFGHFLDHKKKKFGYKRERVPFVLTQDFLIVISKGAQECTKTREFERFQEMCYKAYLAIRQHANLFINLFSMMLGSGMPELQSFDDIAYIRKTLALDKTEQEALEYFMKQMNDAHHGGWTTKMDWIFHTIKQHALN
Sequence of recombinant PI3 kinase α (P27986 whole entry partner, the tested form may be a part): as the sequence (P27986 whole entry partner) above

| SMILES | IC50 (recombinant PI3 kinase α; [6]) [nM] | IC50 (recombinant PI3 kinase α; [7]) [nM] | IC50 (recombinant PI3 kinase γ; [8]) [nM] | IC50 (recombinant PI3 kinase γ; [9]) [nM] | IC50 (recombinant PI3 kinase δ; [10]) [nM] | IC50 (recombinant PI3 kinase δ; [11]) [nM] | IC50 [1, 12] [nM] | IC50 [1, 13] [nM] | Cell Viability MTT Assay in D-U937 cells at 4 hr [2] | Cell Viability MTT Assay in D-U937 cells at 24 hr [2] | inhibition of LPS-induced neutrophilia (neutrophil influx into the lung), in words ([3]; mouse) | anti-inflammatory activity (BALF neutrophils and alveolar macrophages), monotherapy [4] | other results |
| --- | --- | --- | --- | --- | --- | --- | --- | --- | --- | --- | --- | --- | --- |
| C#Cc1cccc2nc(Cn3nc(-c4cccc(O)c4)c4c(N)ncnc43)n(Cc3ccccc3Cl)c(=O)c12 [Example 1, 2-((4-Amino-3-(3-hydroxyphenyl)-1H-pyrazolo[3,4-d]pyrimidin-1-yl)methyl)-3-(2-chlorobenzyl)-5-ethynylquinazolin-4(3H)-one] | 50 to 1000 | 199 | 50 to 1000 | 234 | < 50 | 7 | < 10 | 1.1 | − (− <30%) | − (− <30%) | Inhibition of LPS-induced neutrophilia | inhibition; also recorded: possesses anti-inflammatory activity | anti-inflammatory activity when co-administered with fluticasone propionate ([4]; co-administered with fluticasone propionate at a dose which lacks effect as monotherapy): marked enhancement of anti-inflammatory activity; atropisomerism by chiral stationary phase HPLC [5]: no evidence for atropisomerism was observed |
| Nc1ncnc2c1c(-c1ccc(O)cc1)nn2Cc1nc2cccc(C#CCCCC(=O)N3CCOCC3)c2c(=O)n1Cc1ccccc1Cl [Example 5, 2-((4-Amino-3-(4-hydroxyphenyl)-1H-pyrazolo[3,4-d]pyrimidin-1-yl)methyl)-3-(2-chlorobenzyl)-5-(6-morpholino-6-oxohex-1-yn-1-yl)quinazolin-4(3H)-one] | < 50 | 20 | < 50 | 16 | < 50 | 20 | < 10 | 0.58 | − (− <30%) | − (− <30%) | dose dependent inhibition |  | % Inhibition of neutrophils in BAL at the dose indicated (mg/mL) (0.05) ([3]; 0.05 mg/mL intra-tracheal, 2 hr before LPS challenge, mouse): 4.8%; % Reduction of inhibition at 8 hr compared with 2 hr ([3]; 0.2 mg/mL dose, mouse lung): 44%; % Inhibition of neutrophils in BAL at the dose indicated (mg/mL) (0.2) ([3]; 0.2 mg/mL intra-tracheal, 2 hr before LPS challenge, mouse): 37.7%; % Inhibition at 0.2 mg/mL dose at time indicated (hr) (2) ([3]; 0.2 mg/mL, dosed 2 hr before LPS challenge, mouse lung): 37.7%; % Inhibition at 0.2 mg/mL dose at time indicated (hr) (8) ([3]; 0.2 mg/mL, dosed 8 hr before LPS challenge, mouse lung): 21.2%; % Inhibition of neutrophils in BAL at the dose indicated (mg/mL) (1.0) ([3]; 1.0 mg/mL intra-tracheal, 2 hr before LPS challenge, mouse): 58.5%; level of anti-inflammatory activity at the 8 hr time point relative to value 2 hr after drug treatment ([3]; same dose, LPS challenge, mouse): over half of its original value |
| C[C@@H]1C[C@H]2[C@@H]3CCC4=CC(=O)C=C[C@]4(C)[C@@]3(F)[C@@H](O)C[C@]2(C)[C@@]1(O)C(=O)CO [dexamethasone, reference compound] |  |  |  |  |  |  |  |  |  |  |  |  | anti-inflammatory activity (BALF neutrophils and alveolar macrophages) ([4]; 0.3-10 mg/kg, p.o.): inactive |
| CCC(=O)O[C@]1(C(=O)SCF)[C@H](C)C[C@H]2[C@@H]3C[C@H](F)C4=CC(=O)C=C[C@]4(C)[C@@]3(F)[C@@H](O)C[C@@]21C [fluticasone propionate, reference compound] |  |  |  |  |  |  |  |  |  |  |  | lacks effect as monotherapy |  |
